Legend:
GV sPLA2 = molecular target: T1, GV sPLA2 (Homo sapiens, UniProt P39877); experiment: Mixed micelle-based; type: biochemical; conditions: lower bound from % inhibition at 0.091 mole fraction
T1 sequence (P39877 21-138): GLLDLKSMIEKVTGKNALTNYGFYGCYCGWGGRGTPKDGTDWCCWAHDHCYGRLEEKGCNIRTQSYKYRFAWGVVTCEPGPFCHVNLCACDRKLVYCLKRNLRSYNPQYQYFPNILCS

GIVA cPLA2 = molecular target: T2, GIVA cPLA2 (Homo sapiens, UniProt P47712); experiment: Mixed micelle-based; type: biochemical; conditions: for times more potent for GVIA iPLA2 than for GIVA cPLA2: ratio of XI(50) values; for inhibition at 0.091 mole fraction: read-out: GIVA cPLA2 % Inhibition
T2 sequence (P47712 1-749): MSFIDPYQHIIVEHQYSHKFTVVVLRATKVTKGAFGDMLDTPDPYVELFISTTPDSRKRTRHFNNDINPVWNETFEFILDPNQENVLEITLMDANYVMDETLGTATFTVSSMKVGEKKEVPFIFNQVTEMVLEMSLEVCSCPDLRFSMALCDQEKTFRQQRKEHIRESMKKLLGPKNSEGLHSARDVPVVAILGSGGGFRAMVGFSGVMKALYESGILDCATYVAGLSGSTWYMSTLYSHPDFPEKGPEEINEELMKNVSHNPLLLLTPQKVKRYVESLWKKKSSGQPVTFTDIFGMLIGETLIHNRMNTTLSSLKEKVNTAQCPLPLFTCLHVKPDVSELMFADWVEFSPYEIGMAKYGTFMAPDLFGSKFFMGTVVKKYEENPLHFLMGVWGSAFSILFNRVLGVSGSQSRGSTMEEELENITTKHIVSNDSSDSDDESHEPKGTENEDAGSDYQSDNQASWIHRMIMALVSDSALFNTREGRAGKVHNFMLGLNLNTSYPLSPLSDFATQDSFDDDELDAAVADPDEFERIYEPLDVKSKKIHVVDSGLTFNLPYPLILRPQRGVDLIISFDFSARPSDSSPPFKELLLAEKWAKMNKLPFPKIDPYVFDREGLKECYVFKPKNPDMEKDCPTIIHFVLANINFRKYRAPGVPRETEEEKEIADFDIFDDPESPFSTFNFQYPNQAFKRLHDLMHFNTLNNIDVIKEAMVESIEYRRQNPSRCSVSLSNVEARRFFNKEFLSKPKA

human GVIA iPLA2 = molecular target: T3, human GVIA iPLA2 (Homo sapiens, UniProt O60733); conditions: previous mixed micelle assay with DPPC substrate; cited from earlier work
T3 sequence (O60733 1-806): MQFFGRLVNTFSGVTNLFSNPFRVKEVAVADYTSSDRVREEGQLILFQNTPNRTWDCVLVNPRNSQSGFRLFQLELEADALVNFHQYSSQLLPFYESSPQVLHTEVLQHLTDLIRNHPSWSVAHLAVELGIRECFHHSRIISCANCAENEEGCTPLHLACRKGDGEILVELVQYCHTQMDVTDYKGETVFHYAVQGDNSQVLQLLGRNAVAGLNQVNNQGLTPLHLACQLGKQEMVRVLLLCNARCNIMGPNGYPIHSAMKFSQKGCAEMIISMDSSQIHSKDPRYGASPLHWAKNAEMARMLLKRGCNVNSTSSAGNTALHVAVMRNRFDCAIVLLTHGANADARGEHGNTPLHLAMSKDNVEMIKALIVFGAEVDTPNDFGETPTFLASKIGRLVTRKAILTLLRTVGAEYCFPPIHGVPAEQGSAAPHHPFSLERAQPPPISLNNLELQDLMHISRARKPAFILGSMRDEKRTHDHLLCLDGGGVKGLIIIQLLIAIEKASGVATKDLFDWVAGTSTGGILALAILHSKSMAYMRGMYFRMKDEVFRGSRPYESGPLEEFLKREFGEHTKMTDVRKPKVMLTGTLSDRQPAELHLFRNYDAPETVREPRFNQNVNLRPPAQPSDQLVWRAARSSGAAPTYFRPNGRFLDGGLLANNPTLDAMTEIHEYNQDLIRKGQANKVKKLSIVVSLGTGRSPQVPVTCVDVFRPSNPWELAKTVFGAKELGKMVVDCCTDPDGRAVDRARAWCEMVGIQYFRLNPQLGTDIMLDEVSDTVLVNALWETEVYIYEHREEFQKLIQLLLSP

[1] = test system: experimental autoimmune encephalomyelitis; conditions: animal model of multiple sclerosis; cited from earlier work

O=C(CCCCc1ccc2ccccc2c1)C(F)(F)F [12g, 1,1,1-Trifluoro-6-(naphthalen-2-yl)hexan-2-one]
times more potent for GVIA iPLA2 than for GV sPLA2 (GV sPLA2): > 455 times
GIVA cPLA2 XI(50) (GIVA cPLA2; mole fraction of inhibitor in total substrate interface giving 50% inhibition): 0.039 ± 0.001 mole fraction

O=C(CCCCc1ccc2ccccc2c1)C(F)(F)C(F)(F)C(F)(F)F [12i, 1,1,1,2,2,3,3-Heptafluoro-8-(naphthalen-2-yl)octan-4-one]
times more potent for GVIA iPLA2 than for GV sPLA2 (GV sPLA2): at least 90 times
times more potent for GVIA iPLA2 than for GIVA cPLA2 (GIVA cPLA2): at least 90 times

1,1,1,2,2,3,3,5-octafluoro-7-phenyloctan-4-one [compound 25]
times more potent for GVIA iPLA2 than for GV sPLA2 (GV sPLA2): > 180 times
times more potent for GVIA iPLA2 than for GIVA cPLA2 (GIVA cPLA2): 76 times

O=C(CCCCCc1ccccc1)C(F)(F)C(F)(F)C(F)(F)F [6b, 1,1,1,2,2,3,3-Heptafluoro-9-phenylnonan-4-one]
inhibition at 0.091 mole fraction (GIVA cPLA2): < 25%

O=C(CCCCc1ccccc1)C(F)(F)C(F)(F)F [compound 2, 1,1,1,2,2-pentafluoro-7-phenylheptan-3-one]
GVIA iPLA2 XI(50) determined previously (human GVIA iPLA2): 0.0073 mole fraction
inhibition at 0.091 mole fraction (GIVA cPLA2): < 25%
therapeutic effect in experimental autoimmune encephalomyelitis [1]: beneficial therapeutic effect

— article PMC2865582 (Journal of medicinal chemistry, 2010)
